The nature of data set [1]: Aqueous solubility of hydrochloride salt. The data set is classed as physicochemical. To be noted: for solubility: phosphate buffer; for solubility / Aqueous solubility of hydrochloride salt At pH 5.0 / Aqueous solubility of hydrochloride salt At pH 7.4: 22 °C; for Aqueous solubility of hydrochloride salt At pH 5.0: 5 mM K2PO4 adjusted to pH 5.0, methanol as cosolvent; for Aqueous solubility of hydrochloride salt At pH 7.4: 5 mM K2PO4 adjusted to pH 7.4, methanol as cosolvent; for pKa × solubility in water at pH 5.0: product of calculated pKa and solubility at pH 5.0.

For data set [2], the system named is BHK cells. Briefly: Distribution of LBPA-positive structures, confocal morphometry. The data set is classed as cell-based. As to conditions: 16 h; for LBPA-positive structures Diameter / LBPA-positive structures N°/cell profile: BHK cells, 10 μM analogue, M ± SE; for LBPA-positive structures Diameter: control 1.46 ± 0.02; for LBPA-positive structures N°/cell profile: control 28.6 ± 1.1.

Data set [3] has as its system BHK cells. Description: Cell cholesterol content. To be noted: 10 μM, 16 h, p = 0.03, N = 5.
A further data set relates to blood monocytes. Briefly: Transferrin recycling. Format: cell-based. To be noted: human monocytes, 10 μM.
The subject of data set [4] is HIV-1 VLP budding from 293T cells. Format: cell-based, human immunodeficiency virus type 1.
Data set [5] relates to feline immunodeficiency virus (FIV) VLP budding from 293T cells. Format: cell-based.
The next data set relates to Vero cells. The data set is classed as cell-based.
The next data set concerns K562 cells. Description: Exosome release. As to conditions: 10 μM, 16 h, N = 7, change not significant.
Data set [6] concerns early endosomes from BHK cells.
For data set [7] the following is noted: ref http://www.patentstorm.us/patents/6939865/description.html; cited from earlier work.
The subject of data set [8] is BHK cells. Briefly: Cell viability / tolerated concentration. The data set is classed as cell-based.
The conditions of data set [9]: ref [27]; cited from earlier work.
Where [10] appears, read: 10 μM, 5 independent experiments, p < 0.01.

Each structure is given as a SMILES string. Read-outs that look alike come from different tables or passages of the source. Marks after values point to notes of the source that are not given here.

As usually defined, the solubility is how much of the substance goes into solution per volume. In the case of `CCCCc1oc2ccccc2c1C(=O)c1cc(I)c(OCCNCC)c(I)c1` [MDEA, 2-n-butyl-3-(3,5-diiodo-4-ethylaminoethoxybenzoyl)-benzofuran, reference compound], the solubility in data set [1] (pH 5) was 12 µM; in data set [1] (pH 7.4) it was 0.11 µM.

In the case of `CCCCc1oc2ccccc2c1C(=O)c1cc(I)c(OCCN(C)C)c(I)c1` [MeAMI, (2-butyl-benzofuran-3-yl)-4-[2-(dimethylamino-ethoxy)-3,5-diiodophenyl]methanone], in data set [1], the “Aqueous solubility of hydrochloride salt At pH 5.0” value was 2.21 ^b μM, the “Aqueous solubility of hydrochloride salt At pH 7.4” value is recorded as 0.051 ^b μM and the “pKa × solubility in water at pH 5.0” value is listed as 17.50. Moreover, in the data set on BHK cells [2], the “LBPA-positive structures Diameter” value amounted to 2.45 ± 0.08 μm and the “LBPA-positive structures N°/cell profile” value was found to be 4.5 ± 0.6.

Take `CCCCc1oc2ccccc2c1C(=O)c1cc(I)c(OCCN(C(C)C)C(C)C)c(I)c1.Cl` [DIPAM, (2-butyl-benzofuran-3-yl)-4-[2-(diisopropylamino)ethoxy]-3,5-diiodophenyl-methanone·hydrochloride]: in data set [1], the “Aqueous solubility of hydrochloride salt At pH 5.0” value is reported as 0.23 ^b μM, the “Aqueous solubility of hydrochloride salt At pH 7.4” value is listed as 0.014 ^b μM and the “pKa × solubility in water at pH 5.0” value is 2.07. In addition, in the data set with BHK cells [2], the “LBPA-positive structures Diameter” value is reported as 1.64 ± 0.04 μm and the “LBPA-positive structures N°/cell profile” value is 24.6 ± 3.0.

With `CCCCc1oc2ccccc2c1C(=O)c1cc(I)c(OCCN2CCOCC2)c(I)c1` [MOPAM, 2-n-butyl-3-(3,5-diiodo-4-β-Nmorpholinoethoxybenzoyl)benzofuran], in data set [1], the “Aqueous solubility of hydrochloride salt At pH 5.0” value is 0.17 ^b μM, the “Aqueous solubility of hydrochloride salt At pH 7.4” value was 0.015 ^b μM and the “pKa × solubility in water at pH 5.0” value is listed as 0.55. In the data set on BHK cells [2], the “LBPA-positive structures Diameter” value worked out at 1.45 ± 0.02 μm and the “LBPA-positive structures N°/cell profile” value is reported as 29.3 ± 0.6.

Turning to `CCCCc1oc2ccccc2c1C(=O)c1cc(I)c(OCCN(CC)CC)c(I)c1` [AMI, Amiodarone], the “increase in cell cholesterol” value in the data set on BHK cells [3] is listed as 17.3 ± 5.2%. Also, in the data set with blood monocytes, the “effect on transferrin recycling” value is reported as “no effect”. Also, the “release of mature VLPs (HIV-1)” value in data set [4] was “did not inhibit the release of mature VLPs”. The “release of mature VLPs (FIV)” value in data set [5] is “did not inhibit the release of mature VLPs”. Besides, the “effect on activity of Shiga toxin” value in the data set with Vero cells was “not decreased”. Besides, in the data set on K562 cells, the “decrease in secreted acetylcholinesterase with respect to control cells” value was 12.0 ± 8.7%. Further, the “change in endosome-associated fluorescence” value in data set [6] was “no change”. In the data set with BHK cells [2] (setting [10]), the “decrease in number of LBPA-rich structures per cell profile” value is 69.0 ± 4.5% and the “increase in diameter of LBPA-rich structures” value turned out to be 42.6 ± 5.2%. In addition, in the data set with BHK cells [2], the “LBPA-positive structures Diameter” value came to 2.01 ± 0.03 μm and the “LBPA-positive structures N°/cell profile” value was determined as 5.2 ± 0.4.

Turning to `CCCCc1oc2ccc(NS(C)(=O)=O)cc2c1C(=O)c1ccc(OCCCN(CCCC)CCCC)cc1` [DRO, Dronedarone], the “Aqueous solubility of hydrochloride salt At pH 7.4” value in data set [7] is listed as <0.001 ^c μM. Besides, the “highest concentration tolerated by transfected cells” value in the data set on BHK cells [8] (BHK cells transiently transfected with pEGFP-LC3, 16 h) is 2 µM. In the data set with BHK cells [8] (BHK cells, 16 h), the “concentration toxic to cells” value was more than 5 µM. In data set [9], the “serum levels, times lower than in patients treated with amiodarone” value is on record as “over 10 times”.

`CCCCc1oc2ccccc2c1C(=O)c1cc(I)c(OCCN2CCCC2)c(I)c1.Cl` [PYRAM, 4-(2-butyl-benzofuran-3-yl)-[3,5-diiodophenyl-4-(2-pyrrolidin-1-yl-ethoxy)phenyl]-methanone·hydrochloride]: in data set [1], the “Aqueous solubility of hydrochloride salt At pH 5.0” value is 1.86 ^b μM, the “Aqueous solubility of hydrochloride salt At pH 7.4” value was 0.049 ^b μM and the “pKa × solubility in water at pH 5.0” value is listed as 9.22. For the same compound, in the data set on BHK cells [2], the “LBPA-positive structures Diameter” value came out at 2.08 ± 0.05 μm and the “LBPA-positive structures N°/cell profile” value came out at 7.6 ± 0.6.

On to `CCCCc1oc2ccccc2c1C(=O)c1cc(I)c(OCCN2CCCCC2)c(I)c1.Cl` [PIPAM, 4-(2-butyl-benzofuran-3-yl)-[3,5-diiodophenyl-4-(2-piperidinoethoxy)phenyl] methanone·hydrochloride], for which, in data set [1], the “Aqueous solubility of hydrochloride salt At pH 5.0” value was 2.22 ^b μM, the “Aqueous solubility of hydrochloride salt At pH 7.4” value is 0.023 ^b μM and the “pKa × solubility in water at pH 5.0” value is given as 11.88. Moreover, in the data set on BHK cells [2], the “LBPA-positive structures Diameter” value stood at 1.73 ± 0.03 μm and the “LBPA-positive structures N°/cell profile” value is listed as 14.7 ± 2.1.

These data come from PMC7092840 (Biochemical Pharmacology, 2011).
